Values quoted from earlier work in patent US20050201989A1, “Compositions and methods for ex vivo preservation of blood vessels for vascular grafts using inhibitors of tumor necrosis factor-alpha” (St. Camillus Medical, Inc., priority 2004, published 2005).

Tested on: endothelial cells
Settings: general knowledge statement, no test described

CCCC(=O)Nc1ncnc2c1ncn2[C@@H]1O[C@@H]2COP(=O)(O)O[C@H]2[C@H]1OC(=O)CCC [db cAMP, dibutyryl adenosine 3′,5′-cyclic monophosphate]
db cAMP concentration that becomes toxic to endothelial cells: higher than 4 mM
